Laboratory results as given in US20050074867A1, “Preservation of competent cells at ambient temperatures” (priority 2001, published 2005).

System: commercial electrocompetent E. coli cells
Test: Electroporation of preserved commercial electrocompetent E. coli cells
Assay type: cell-based
Details: loaded with 10% MAG, transformed immediately after drying
Method: (2) Electroporation of fresh E. coli electrocompetent cells: Two aliquots of the concentrated cells (50 μl each) were transferred into pre-chilled Eppendorf tubes (1.5 ml) and 2 μl of pUC18 plasmid DNA (approx. 300 ng/μl) were added to the tubes. The [cells+DNA] mixtures were incubated on ice for 5 minutes and transferred into pre-chilled cuvettes for electroporation. The cells were electroporated by using a BTX T-100 electroporator, at 625 or at 800 volts (V) in BTX cuvettes (0.1 cm gap, P/N 610 Disposable Cuvettes) with a time constant “r” equal 5 msec. Under the pulse conditions described above, the cells were subjected to an electrical field “E” equal to 6.25 kV/cm or 8.0 kV/cm.
Immediately after the pulse, the cells were transferred into small glass tubes (10×100 mm) with 0.5 ml of “outgrowth medium” (L-broth+20% sucrose+10 mM CaCl2). The electroporated bacteria were incubated at 37° C. with moderate shaking (150 rpm) for 60 minutes. When the 60 minutes period elapsed, the cells were diluted in “outgrowth medium” and duplicate samples were spread plated on L-agar plates with no antibiotic (to determine electroporation survival) and on L-agar plates with 50 μg/ml or 100 μg/ml of ampicillin (selective marker on pUC18 plasmid; to determine electroporation efficiency). The plates were incubated overnight at 37° C. and the colonies were counted the next day.
(6) Electroporation of dried (preserved) E. coli cells: One or two 50 μl aliquots were removed from each rehydrated vial and transferred to pre-chilled Eppendorf tubes. The cells were mixed with pUC18 plasmid DNA (300 ng/μl) and electroporated using the conditions described previously for the electroporation of fresh electrocompetent cells.
Electroporation survival was calculated as the number of viable cells recovered after electrical pulse per total number of electroportated cells. Electroporation efficiency was calculated as the number of transformants (cells which received pUC18 plasmid DNA) per number of cells recovered after electroporation (electroporation survival). When applicable, the electroporation efficiency was also expressed as number of transformants per 1 μg of pUC18 DNA (Cfu/μg).
Preserved commercial cells (vitrified and frozen) were electroporated as described previously. Electroporation survival and electroporation efficiency in the preserved cells were determined and compared to the same parameters in the fresh cells (Table 5).

In the case of `COC1OC(CO)C(O)C(O)C1O` (centres unmarked) [MAG, a-methyl-glucoside], the “Electroporation Efficiency 10^−3%” value was 6.1 +/− 5.5 10^−3%, the “Electroporation Efficiency (Cfu/µg DNA)” value was 1.6 × 10^4 +/− 1.8 × 10^2 Cfu/µg DNA and the “Electroporation Efficiency Cfu/ml” value was 1.9 × 10^5 +/− 1.7 × 10^5 Cfu/ml. For the same compound, the “Electroporation Survival (%)” value was 35.7 +/− 4.7% and the “Electroporation Survival Cfu/ml” value (cell density 1/10 of fresh concentrates) was 3.2 × 10^9 +/− 4.2 × 10^8 Cfu/ml.
